Columns and labels:
Assay in all cases: relative viability (nuclei count vs DMSO), 5 days (fraction); higher = more cells survive
[1] = compound: CC1=C(C=CC(=C1)[N+](=O)[O-])NS(=O)(=O)C2=C(C=CC(=C2)Cl)Cl [FH535]
How it was run: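 Cells of lung cancer lines were placed in 1536-well plates and kept overnight at 37 °C. Pinning then delivered five library-drug doses (not always all listed), spaced by √10, onto plates anchored with vehicle, and the cells were left 5 days without changing medium. One step fixed, permeabilised and stained them with Hoechst, and MetaXpress counted nuclei in 4× images. Viability, as a median over plates, is treated-well nuclei divided by vehicle-well nuclei, with acceptance only at control CV below 25% and at least one doubling.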

[2] = compound: CC1=C(C=CC(=C1)[N+](=O)[O-])NS(=O)(=O)C2=C(C=CC(=C2)Cl)Cl [FH535] + CCNC(=O)c1noc(-c2cc(C(C)C)c(O)cc2O)c1-c1ccc(CN2CCOCC2)cc1 [Luminespib] (partner 0.01 µM)
How it was run: (§1)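 One day after seeding in 1536-well plates, lung cancer cell lines were dosed by pin tool. Dosing was either single-drug or a fixed anchor-drug dose plus five library-drug doses (not always all listed) in √10 steps. After 5 days, nuclei were stained in one fix-and-stain step and counted on 4× images, and relative viability is the nuclei count of treated wells over that of vehicle wells, given as the median of duplicate plates.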

[3] = compound: CC1=C(C=CC(=C1)[N+](=O)[O-])NS(=O)(=O)C2=C(C=CC(=C2)Cl)Cl [FH535] + COc1cc2c(Oc3ccc(NC(=O)C4(C(=O)Nc5ccc(F)cc5)CC4)cc3F)ccnc2cc1OCCCN1CCOCC1 [Foretinib] (partner 0.25 µM)
How it was run: as §1

[4] = compound: CC1=C(C=CC(=C1)[N+](=O)[O-])NS(=O)(=O)C2=C(C=CC(=C2)Cl)Cl [FH535] + COc1cccc2cc(-c3nc([C@H]4CC[C@H](C(=O)O)CC4)n4ncnc(N)c34)[nH]c12 [OSI-027] (partner 0.5 µM)
How it was run: as §1

[5] = compound: CC1=C(C=CC(=C1)[N+](=O)[O-])NS(=O)(=O)C2=C(C=CC(=C2)Cl)Cl [FH535] + Cc1cc(Nc2cc(N3CCN(C)CC3)nc(Sc3ccc(NC(=O)C4CC4)cc3)n2)n[nH]1 [Tozasertib] (partner 0.1 µM)
How it was run: as §1

[6] = compound: CC1=C(C=CC(=C1)[N+](=O)[O-])NS(=O)(=O)C2=C(C=CC(=C2)Cl)Cl [FH535] + Cc1nc(Nc2ncc(C(=O)Nc3c(C)cccc3Cl)s2)cc(N2CCN(CCO)CC2)n1 [Dasatinib] (partner 0.075 µM)
How it was run: as §1

[7] = compound: CC1=C(C=CC(=C1)[N+](=O)[O-])NS(=O)(=O)C2=C(C=CC(=C2)Cl)Cl [FH535] + N=C(N)NC(=N)NCCc1ccccc1 [Phenformin] (partner 250 µM)
How it was run: as §1

[8] = compound: CC1=C(C=CC(=C1)[N+](=O)[O-])NS(=O)(=O)C2=C(C=CC(=C2)Cl)Cl [FH535] + CC(=O)Nc1cccc(-n2c(=O)n(C3CC3)c(=O)c3c(Nc4ccc(I)cc4F)n(C)c(=O)c(C)c32)c1 [Trametinib] (partner 0.02 µM)
How it was run: as §1

[9] = compound: CC1=C(C=CC(=C1)[N+](=O)[O-])NS(=O)(=O)C2=C(C=CC(=C2)Cl)Cl [FH535] + CC(=O)c1c(C)c2cnc(Nc3ccc(N4CCNCC4)cn3)nc2n(C2CCCC2)c1=O [Palbociclib] (partner 0.5 µM)
How it was run: as §1

[10] = compound: CC1=C(C=CC(=C1)[N+](=O)[O-])NS(=O)(=O)C2=C(C=CC(=C2)Cl)Cl [FH535] + NC(=O)Nc1cc(-c2cccc(F)c2)sc1C(=O)N[C@H]1CCCNC1 [AZD7762] (partner 0.2 µM)
How it was run: as §1

[11] = compound: CC1=C(C=CC(=C1)[N+](=O)[O-])NS(=O)(=O)C2=C(C=CC(=C2)Cl)Cl [FH535] + Nc1nc2[nH]cc(CCc3ccc(C(=O)N[C@@H](CCC(=O)O)C(=O)O)cc3)c2c(=O)[nH]1 [Pemetrexed] (partner 0.2 µM)
How it was run: as §1

[12] = compound: CC1=C(C=CC(=C1)[N+](=O)[O-])NS(=O)(=O)C2=C(C=CC(=C2)Cl)Cl [FH535] + Nc1ncn([C@H]2C[C@H](O)[C@@H](CO)O2)c(=O)n1 [Decitabine] (partner 2 µM)
How it was run: as §1

[13] = compound: CC1=C(C=CC(=C1)[N+](=O)[O-])NS(=O)(=O)C2=C(C=CC(=C2)Cl)Cl [FH535] + O=C(CCCCCCC(=O)Nc1ccccc1)NO [Vorinostat] (partner 1 µM)
How it was run: as §1

[14] = compound: CC1=C(C=CC(=C1)[N+](=O)[O-])NS(=O)(=O)C2=C(C=CC(=C2)Cl)Cl [FH535] + O=C(c1cc(Cc2n[nH]c(=O)c3ccccc23)ccc1F)N1CCN(C(=O)C2CC2)CC1 [Olaparib] (partner 8 µM)
How it was run: as §1

NCI-H1623
relative viability ([1]; 0.04 µM): 1.02 | relative viability ([1]; 0.1265 µM): 0.948 | relative viability ([1]; 0.4 µM): 0.991 | relative viability ([1]; 1.265 µM): 0.912 | relative viability ([2]; first compound 0.04 µM): 0.609 | relative viability ([2]; first compound 0.1265 µM): 0.574 | relative viability ([2]; first compound 0.4 µM): 0.513 | relative viability ([2]; first compound 1.265 µM): 0.509 | relative viability ([3]; first compound 0.04 µM): 0.816 | relative viability ([3]; first compound 0.1265 µM): 0.855 | relative viability ([3]; first compound 0.4 µM): 0.823 | relative viability ([3]; first compound 1.265 µM): 0.777 | relative viability ([4]; first compound 0.04 µM): 0.424 | relative viability ([4]; first compound 0.1265 µM): 0.525 | relative viability ([4]; first compound 0.4 µM): 0.451 | relative viability ([4]; first compound 1.265 µM): 0.413 | relative viability ([5]; first compound 0.04 µM): 0.391 | relative viability ([5]; first compound 0.1265 µM): 0.426 | relative viability ([5]; first compound 0.4 µM): 0.426 | relative viability ([5]; first compound 1.265 µM): 0.45 | relative viability ([6]; first compound 0.04 µM): 0.515 | relative viability ([6]; first compound 0.1265 µM): 0.468 | relative viability ([6]; first compound 0.4 µM): 0.508 | relative viability ([6]; first compound 1.265 µM): 0.478 | relative viability ([7]; first compound 0.04 µM): 0.551 | relative viability ([7]; first compound 0.1265 µM): 0.523 | relative viability ([7]; first compound 0.4 µM): 0.495 | relative viability ([7]; first compound 1.265 µM): 0.468

NCI-H1648
relative viability ([1]; 0.04 µM): 0.645 | relative viability ([1]; 0.1265 µM): 0.828 | relative viability ([1]; 0.4 µM): 0.837 | relative viability ([1]; 1.265 µM): 0.641 | relative viability ([8]; first compound 0.1265 µM): 0.441 | relative viability ([8]; first compound 0.4 µM): 0.544 | relative viability ([8]; first compound 1.265 µM): 0.352 | relative viability ([9]; first compound 0.1265 µM): 0.219 | relative viability ([9]; first compound 0.4 µM): 0.273 | relative viability ([9]; first compound 1.265 µM): 0.225 | relative viability ([4]; first compound 0.04 µM): 0.243 | relative viability ([4]; first compound 0.4 µM): 0.254 | relative viability ([4]; first compound 1.265 µM): 0.243 | relative viability ([5]; first compound 0.04 µM): 0.397 | relative viability ([5]; first compound 0.4 µM): 0.603 | relative viability ([5]; first compound 1.265 µM): 0.281 | relative viability ([10]; first compound 0.1265 µM): 0.654 | relative viability ([10]; first compound 0.4 µM): 0.612 | relative viability ([10]; first compound 1.265 µM): 0.625 | relative viability ([11]; first compound 0.1265 µM): 0.655 | relative viability ([11]; first compound 0.4 µM): 0.532 | relative viability ([11]; first compound 1.265 µM): 0.635 | relative viability ([12]; first compound 0.1265 µM): 0.585 | relative viability ([12]; first compound 0.4 µM): 0.478 | relative viability ([12]; first compound 1.265 µM): 0.398 | relative viability ([13]; first compound 0.1265 µM): 0.595 | relative viability ([13]; first compound 0.4 µM): 0.709 | relative viability ([13]; first compound 1.265 µM): 0.473 | relative viability ([14]; first compound 0.1265 µM): 0.888 | relative viability ([14]; first compound 0.4 µM): 1.08 | relative viability ([14]; first compound 1.265 µM): 0.383

Reference: the supplement of paper PMC10307832
